In article PMC10041525, “New Dual Inhibitors of Bacterial Topoisomerases with Broad-Spectrum Antibacterial Activity and In Vivo Efficacy against Vancomycin-Intermediate Staphylococcus aureus” (Journal of Medicinal Chemistry, 2023):
Where “and” joins values, the source holds several entries; their conditions need not be identical. Equal values may be shown once. Read-outs that look alike come from different tables or passages of the source.

Experiments:
topo IV from E. coli = target: T1, topo IV from E. coli (Escherichia coli, UniProt P20083); assay: relaxation HTS plate assay; assay type: biochemical; settings: read-out: IC50
T1 construct: purchased Inspiralis
In short: (§1)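 E. coli gyrase tested by supercoiling and topo IV by relaxation in high-throughput plate format. IC50 from seven inhibitor concentrations; mean of three independent measurements.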

[1] = test system: Enterococcus faecalis ATCC 29212; assay: MIC broth microdilution (CLSI); assay type: cell-based, E. faecalis; settings: Enterococcus faecalis, ATCC29212; read-out: MIC
[2] = test system: Enterobacter cloacae spp. cloacae ATCC 13047; assay: MIC broth microdilution (CLSI); assay type: cell-based; settings: Enterobacter cloacae, ATCC13047; read-out: MIC
In short: (§2)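 Compounds were serially diluted in cation-adjusted Mueller Hinton broth 2 according to CLSI guidance, and each well received 5 × 10^4 cells. After 18 h at 37 °C and 150 rpm, absorbance at 600 nm defined the MIC as a triplicate-mean increment below 1.5-fold background.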

P. aeruginosa ATCC 27853 = assay: MIC broth microdilution (CLSI); assay type: cell-based; settings: Pseudomonas aeruginosa, ATCC27853; read-out: MIC
In short: as §2

E. coli ATCC 25922 = assay: MIC broth microdilution (CLSI); assay type: cell-based; settings: Escherichia coli, ATCC25922; read-out: MIC
In short: as §2

K. pneumoniae ATCC 10031 = assay: MIC broth microdilution (CLSI); assay type: cell-based
In short: as §2

E. faecium ATCC 700221 = assay: MIC broth microdilution (CLSI); assay type: cell-based; settings: Enterococcus faecium, ATCC700221; read-out: MIC
[3] = test system: S. aureus (VISA) ATCC 700699; assay: MIC broth microdilution (CLSI); assay type: cell-based; settings: Staphylococcus aureus; read-out: MIC
In short: as §2

[4] = test system: S. aureus (MRSA) ATCC 43300; assay: MIC broth microdilution (CLSI); assay type: cell-based; settings: Staphylococcus aureus
In short: as §2

DNA gyrase from E. coli = target: T2, DNA gyrase from E. coli (Escherichia coli, UniProt P0AES6); assay: supercoiling HTS plate assay; assay type: biochemical; settings: IC50 [nM] E. coli DNA gyrase
T2 construct: purchased Inspiralis
In short: as §1

S. aureus ATCC 29213 = assay: MIC broth microdilution (CLSI); assay type: cell-based; settings: Staphylococcus aureus, ATCC29213
In short: (§3)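 Cation-adjusted Mueller Hinton broth 2 microdilution, 5 × 10^4 cells per well in 100 μL, three parallel replicates, plates bagged to limit evaporation; growth read as OD600 after incubation.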

A. baumannii ATCC 17978 = assay: MIC broth microdilution (CLSI); assay type: cell-based; settings: Acinetobacter baumannii, ATCC17978
In short: as §3

[5] = Klebsiella pneumoniae, ATCC10031, read-out: MIC
[6] = read-out: MIC [µg/mL](S. aureus MRSA ATCC4330)
[7] = read-out: MIC [µg/mL](S. aureus ATCC 29213)
[8] = read-out: MIC [µg/mL] (A. baumannii ATCC 17978)

T1 sequence (P0AFI2 whole entry): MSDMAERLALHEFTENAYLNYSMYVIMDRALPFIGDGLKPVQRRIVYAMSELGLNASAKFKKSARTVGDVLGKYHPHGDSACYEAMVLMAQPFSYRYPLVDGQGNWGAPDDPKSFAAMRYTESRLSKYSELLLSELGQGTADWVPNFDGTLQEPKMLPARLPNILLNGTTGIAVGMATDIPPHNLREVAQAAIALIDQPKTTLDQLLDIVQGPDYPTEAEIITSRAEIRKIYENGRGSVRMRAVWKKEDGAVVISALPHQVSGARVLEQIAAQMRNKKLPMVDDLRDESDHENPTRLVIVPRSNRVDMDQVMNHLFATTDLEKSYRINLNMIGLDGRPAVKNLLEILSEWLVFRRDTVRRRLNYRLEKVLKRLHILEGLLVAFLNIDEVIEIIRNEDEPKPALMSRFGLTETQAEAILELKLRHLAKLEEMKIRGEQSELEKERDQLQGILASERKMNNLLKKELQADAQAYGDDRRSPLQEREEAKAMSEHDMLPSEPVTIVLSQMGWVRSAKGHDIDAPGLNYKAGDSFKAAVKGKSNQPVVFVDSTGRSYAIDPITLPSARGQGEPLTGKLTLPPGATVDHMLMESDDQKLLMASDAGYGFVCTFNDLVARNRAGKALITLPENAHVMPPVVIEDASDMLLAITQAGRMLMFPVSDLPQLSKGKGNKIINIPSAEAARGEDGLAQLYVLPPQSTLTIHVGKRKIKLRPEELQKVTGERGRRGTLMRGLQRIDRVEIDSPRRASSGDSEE
T1 sequence (P20083 whole entry): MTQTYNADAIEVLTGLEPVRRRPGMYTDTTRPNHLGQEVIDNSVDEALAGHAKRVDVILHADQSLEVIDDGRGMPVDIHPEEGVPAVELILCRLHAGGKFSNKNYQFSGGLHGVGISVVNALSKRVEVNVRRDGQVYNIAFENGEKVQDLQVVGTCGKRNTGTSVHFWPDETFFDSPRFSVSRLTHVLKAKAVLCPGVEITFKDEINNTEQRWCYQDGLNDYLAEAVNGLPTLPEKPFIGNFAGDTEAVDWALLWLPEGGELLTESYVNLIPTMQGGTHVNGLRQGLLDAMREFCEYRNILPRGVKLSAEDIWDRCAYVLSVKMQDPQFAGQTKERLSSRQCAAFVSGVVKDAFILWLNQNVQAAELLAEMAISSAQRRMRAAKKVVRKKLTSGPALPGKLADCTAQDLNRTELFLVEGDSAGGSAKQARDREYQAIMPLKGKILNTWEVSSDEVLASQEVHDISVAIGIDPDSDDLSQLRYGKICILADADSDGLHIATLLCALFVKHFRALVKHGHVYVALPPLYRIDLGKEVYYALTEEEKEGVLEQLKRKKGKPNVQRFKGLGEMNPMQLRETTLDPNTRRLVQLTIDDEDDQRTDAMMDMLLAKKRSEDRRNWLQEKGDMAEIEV

Compound	IC50 (topo IV from E. coli)	MIC [1] [µg/mL]	MIC [2] [µg/mL]	MIC (P. aeruginosa ATCC 27853) [µg/mL]	MIC (E. coli ATCC 25922) [µg/mL]	MIC (K. pneumoniae ATCC 10031) [µg/mL]	MIC (K. pneumoniae ATCC 10031; [5]) [µg/mL]	MIC (E. faecium ATCC 700221) [µg/mL]	MIC [3] [µg/mL]	MIC ([4]; read-out: MIC) [µg/mL]	MIC [4, 6] [µg/mL]	IC50 (DNA gyrase from E. coli) [nM]	MIC (S. aureus ATCC 29213; read-out: MIC) [µg/mL]	MIC (S. aureus ATCC 29213; [7]) [µg/mL]	MIC (A. baumannii ATCC 17978; read-out: MIC) [µg/mL]	MIC (A. baumannii ATCC 17978; [8]) [µg/mL]
Cc1[nH]c(C(=O)Nc2nc3c(N4CCC(O)CC4)cc(C(=O)O)cc3s2)c(Cl)c1Cl [7p, 2-(3,4-Dichloro-5-methyl-1H-pyrrole-2-carboxamido)-4-(4-hydroxypiperidin-1-yl)benzo[d]thiazole-6-carboxylic Acid]	140 ± 3 nM	< 0.0312	> 64	> 64	> 64	4	4	< 0.0312	0.5	4	4	< 10	4	4	> 64	> 64
Cc1[nH]c(C(=O)Nc2nc3c(N4CCOCC4)cc(C(=O)O)cc3s2)cc1Cl [16a, 2-(4-Chloro-5-methyl-1H-pyrrole-2-carboxamido)-4-morpholinobenzo[d]thiazole-6-carboxylic Acid]	< 100 nM and 38 nM	1	> 64	64	> 64	2	2	1	0.5	2	2	13 ± 5	8	8	> 64	> 64
